Data taken from US12539292B2, “BRM targeting compounds and associated methods of use” (Arvinas Operations, Inc., priority 2018, dated 2026).

Molecular target: T1, BRM (Homo sapiens, UniProt P51531)
T1 construct: In-Cell Western Screen of BRM Degradation in SW1573 Cells; endogenous in cells; host or cells: SW1573
Test: In-cell Western screen of BRM degradation in SW1573 cells (Dmax and DC50)
Type: cell-based
Conditions: for DC50: BRM degradation, read-out: BRM DC50; for Dmax: SW1573, % degraded, when tested at the top concentration of between 0.3 and 10 μM, read-out: BRM Dmax (%)
Outline: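 After adhering overnight, cells received compound for 18-20 hours. They were then washed in cold DPBS, fixed with 4% PFA for 20 min and permeabilized for 30 min. Blocking and fluorescent secondary staining followed before imaging.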

T1 sequence (P51531 whole entry): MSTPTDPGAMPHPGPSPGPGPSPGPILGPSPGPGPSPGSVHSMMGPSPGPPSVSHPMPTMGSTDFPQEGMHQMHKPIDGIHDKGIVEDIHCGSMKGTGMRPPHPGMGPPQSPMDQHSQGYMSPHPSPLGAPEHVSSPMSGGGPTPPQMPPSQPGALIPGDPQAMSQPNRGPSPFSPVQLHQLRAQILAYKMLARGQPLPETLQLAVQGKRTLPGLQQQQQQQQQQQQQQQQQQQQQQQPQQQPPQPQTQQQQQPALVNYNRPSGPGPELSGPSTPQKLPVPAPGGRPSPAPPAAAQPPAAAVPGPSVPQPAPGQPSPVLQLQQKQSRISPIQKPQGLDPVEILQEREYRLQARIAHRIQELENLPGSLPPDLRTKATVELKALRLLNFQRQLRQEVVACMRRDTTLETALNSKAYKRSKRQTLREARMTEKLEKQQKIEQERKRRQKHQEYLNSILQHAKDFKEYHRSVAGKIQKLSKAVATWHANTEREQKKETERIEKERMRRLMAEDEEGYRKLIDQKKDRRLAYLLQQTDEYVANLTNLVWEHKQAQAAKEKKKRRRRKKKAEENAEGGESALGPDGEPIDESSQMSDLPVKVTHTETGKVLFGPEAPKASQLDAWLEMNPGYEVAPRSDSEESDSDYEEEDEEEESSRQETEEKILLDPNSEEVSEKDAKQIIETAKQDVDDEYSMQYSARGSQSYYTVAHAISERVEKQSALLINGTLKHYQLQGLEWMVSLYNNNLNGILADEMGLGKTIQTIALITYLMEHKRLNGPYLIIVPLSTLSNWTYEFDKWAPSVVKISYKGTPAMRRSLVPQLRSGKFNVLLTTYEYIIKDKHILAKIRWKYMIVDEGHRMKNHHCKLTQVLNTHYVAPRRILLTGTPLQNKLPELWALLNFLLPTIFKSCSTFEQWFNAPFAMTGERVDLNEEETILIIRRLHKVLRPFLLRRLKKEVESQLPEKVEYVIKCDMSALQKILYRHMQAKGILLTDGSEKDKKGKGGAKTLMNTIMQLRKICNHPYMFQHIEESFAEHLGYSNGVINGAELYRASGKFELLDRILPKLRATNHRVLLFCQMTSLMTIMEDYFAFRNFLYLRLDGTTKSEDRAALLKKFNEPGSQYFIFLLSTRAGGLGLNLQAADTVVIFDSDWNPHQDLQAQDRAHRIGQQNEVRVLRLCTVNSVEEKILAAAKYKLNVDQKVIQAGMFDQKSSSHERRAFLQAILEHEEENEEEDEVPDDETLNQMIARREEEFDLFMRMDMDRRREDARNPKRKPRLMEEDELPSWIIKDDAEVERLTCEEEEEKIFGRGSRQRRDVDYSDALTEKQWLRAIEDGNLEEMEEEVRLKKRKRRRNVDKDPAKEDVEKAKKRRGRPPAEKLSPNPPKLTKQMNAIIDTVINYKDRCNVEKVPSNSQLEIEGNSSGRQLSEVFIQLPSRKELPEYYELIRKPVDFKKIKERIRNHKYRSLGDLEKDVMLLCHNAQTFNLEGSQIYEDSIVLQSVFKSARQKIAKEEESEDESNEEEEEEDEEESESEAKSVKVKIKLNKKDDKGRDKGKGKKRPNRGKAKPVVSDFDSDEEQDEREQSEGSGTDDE

DC50 [nM] | Compound | Dmax [%]
> 30 | Cc1cc([C@@H](C(=O)N2C[C@H](O)C[C@H]2C(=O)N[C@H](COCCOCCNc2ccc(-c3ccccc3O)nn2)c2ccc(-c3scnc3C)cc2)C(C)C)on1 [compound 523, (2S,4R)-4-hydroxy-N-((S)-2-(2-(2-((6-(2-hydroxyphenyl)pyridazin-3-yl)amino)ethoxy)ethoxy)-1-(4-(4-methylthiazol-5-yl)phenyl)ethyl)-1-((S)-3-methyl-2-(3-methylisoxazol-5-yl)butanoyl)pyrrolidine-2-carboxamide] | –
> 30 | Cc1cc([C@H](C(=O)N2C[C@H](O)C[C@H]2C(=O)N[C@H](COCCOCCNc2ccc(-c3ccccc3O)nn2)c2ccc(-c3scnc3C)cc2)C(C)C)on1 [compound 524, (2S,4R)-4-hydroxy-N-((S)-2-(2-(2-((6-(2-hydroxyphenyl)pyridazin-3-yl)amino)ethoxy)ethoxy)-1-(4-(4-methylthiazol-5-yl)phenyl)ethyl)-1-((R)-3-methyl-2-(3-methylisoxazol-5-yl)butanoyl)pyrrolidine-2-carboxamide] | –
> 30 | Cc1cc([C@@H](C(=O)N2C[C@H](O)C[C@H]2C(=O)N[C@@H](COCCOCCNc2ccc(-c3ccccc3O)nn2)c2ccc(-c3scnc3C)cc2)C(C)C)on1 [compound 525, (2S,4R)-4-hydroxy-N-((R)-2-(2-(2-((6-(2-hydroxyphenyl)pyridazin-3-yl)amino)ethoxy)ethoxy)-1-(4-(4-methylthiazol-5-yl)phenyl)ethyl)-1-((S)-3-methyl-2-(3-methylisoxazol-5-yl)butanoyl)pyrrolidine-2-carboxamide] | –
> 30 | Cc1cc([C@H](C(=O)N2C[C@H](O)C[C@H]2C(=O)N[C@@H](COCCOCCNc2ccc(-c3ccccc3O)nn2)c2ccc(-c3scnc3C)cc2)C(C)C)on1 [compound 526, (2S,4R)-4-hydroxy-N-((R)-2-(2-(2-((6-(2-hydroxyphenyl)pyridazin-3-yl)amino)ethoxy)ethoxy)-1-(4-(4-methylthiazol-5-yl)phenyl)ethyl)-1-((R)-3-methyl-2-(3-methylisoxazol-5-yl)butanoyl)pyrrolidine-2-carboxamide] | –
> 30 | Cc1cc([C@@H](C(=O)N2C[C@H](O)C[C@H]2C(=O)N[C@H](COCCCCCc2cc(-c3ccccc3O)nnc2N)c2ccc(-c3scnc3C)cc2)C(C)C)on1 [compound 527, (2S,4R)-N-((S)-2-((5-(3-amino-6-(2-hydroxyphenyl)pyridazin-4-yl)pentyl)oxy)-1-(4-(4-methylthiazol-5-yl)phenyl)ethyl)-4-hydroxy-1-((S)-3-methyl-2-(3-methylisoxazol-5-yl)butanoyl)pyrrolidine-2-carboxamide] | –
> 30 | Cc1cc([C@H](C(=O)N2C[C@H](O)C[C@H]2C(=O)N[C@H](COCCCCCc2cc(-c3ccccc3O)nnc2N)c2ccc(-c3scnc3C)cc2)C(C)C)on1 [compound 528, (2S,4R)-N-((S)-2-((5-(3-amino-6-(2-hydroxyphenyl)pyridazin-4-yl)pentyl)oxy)-1-(4-(4-methylthiazol-5-yl)phenyl)ethyl)-4-hydroxy-1-((R)-3-methyl-2-(3-methylisoxazol-5-yl)butanoyl)pyrrolidine-2-carboxamide] | –
> 30 | Cc1cc([C@@H](C(=O)N2C[C@H](O)C[C@H]2C(=O)N[C@@H](COCCCCCc2cc(-c3ccccc3O)nnc2N)c2ccc(-c3scnc3C)cc2)C(C)C)on1 [compound 529, (2S,4R)-N-((R)-2-((5-(3-amino-6-(2-hydroxyphenyl)pyridazin-4-yl)pentyl)oxy)-1-(4-(4-methylthiazol-5-yl)phenyl)ethyl)-4-hydroxy-1-((S)-3-methyl-2-(3-methylisoxazol-5-yl)butanoyl)pyrrolidine-2-carboxamide] | –
> 30 | Cc1cc([C@H](C(=O)N2C[C@H](O)C[C@H]2C(=O)N[C@@H](COCCCCCc2cc(-c3ccccc3O)nnc2N)c2ccc(-c3scnc3C)cc2)C(C)C)on1 [compound 530, (2S,4R)-N-((R)-2-((5-(3-amino-6-(2-hydroxyphenyl)pyridazin-4-yl)pentyl)oxy)-1-(4-(4-methylthiazol-5-yl)phenyl)ethyl)-4-hydroxy-1-((R)-3-methyl-2-(3-methylisoxazol-5-yl)butanoyl)pyrrolidine-2-carboxamide] | –
> 30 | Cc1cc([C@@H](C(=O)N2C[C@H](O)C[C@H]2C(=O)N[C@@H](C)c2ccc(-c3scnc3C)cc2)[C@H](C)COCCn2cc(-c3cc(-c4ccccc4O)nnc3N)cn2)on1 [compound 534, (2S,4R)-1-((2S,3S)-4-(2-(4-(3-amino-6-(2-hydroxyphenyl)pyridazin-4-yl)-1 H-pyrazol-1-yl)ethoxy)-3-methyl-2-(3-methylisoxazol-5-yl)butanoyl)-4-hydroxy-N-((S)-1-(4-(4-methylthiazol-5-yl)phenyl)ethyl)pyrrolidine-2-carboxamide] | –

Compound | DC50 [nM] | Dmax [%]
Cc1ncsc1-c1ccc([C@H](C)NC(=O)[C@@H]2C[C@@H](O)CN2C(=O)[C@@H](c2cc(N3CCN(CC#Cc4ncc(O[C@H]5C[C@H](Oc6cc(N7C8CCC7CN(c7cc(-c9ccccc9O)nnc7N)C8)ccn6)C5)cn4)CC3)no2)C(C)C)cc1 [compound 522, (2S,4R)-1-((2R)-2-(3-(4-(3-(5-((1r,3r)-3-((4-(3-(3-amino-6-(2-hydroxyphenyl)pyridazin-4-yl)-3,8-diazabicyclo[3.2.1]octan-8-yl)pyridin-2-yl)oxy)cyclobutoxy)pyrimidin-2-yl)prop-2-yn-1-yl)piperazin-1-yl)isoxazol-5-yl)-3-methylbutanoyl)-4-hydroxy-N-((S)-1-(4-(4-methylthiazol-5-yl)phenyl)ethyl)pyrrolidine-2-carboxamide] | < 2.5 | > 75
Cc1ncsc1-c1ccc([C@H](CCC#N)NC(=O)[C@@H]2C[C@@H](O)CN2C(=O)[C@H](c2cc(OCCN3CCC(O[C@H]4C[C@H](Oc5cc(N6C7CCC6CN(c6cc(-c8ccccc8O)nnc6N)C7)ccn5)C4)CC3)no2)C(C)C)cc1 [compound 532, (2S,4R)-1-((2S)-2-(3-(2-(4-((1r,3S)-3-((4-(3-(3-amino-6-(2-hydroxyphenyl)pyridazin-4-yl)-3,8-diazabicyclo[3.2.1]octan-8-yl)pyridin-2-yl)oxy)cyclobutoxy)piperidin-1-yl)ethoxy)isoxazol-5-yl)-3-methylbutanoyl)-N-((S)-3-cyano-1-(4-(4-methylthiazol-5-yl)phenyl)propyl)-4-hydroxypyrrolidine-2-carboxamide] | > 30 | –
Cc1ncsc1-c1ccc([C@H](CCC#N)NC(=O)[C@@H]2C[C@@H](O)CN2C(=O)[C@@H](c2cc(OCCN3CCC(O[C@H]4C[C@H](Oc5cc(N6C7CCC6CN(c6cc(-c8ccccc8O)nnc6N)C7)ccn5)C4)CC3)no2)C(C)C)cc1 [compound 533, (2S,4R)-1-((2R)-2-(3-(2-(4-((1r,3R)-3-((4-(3-(3-amino-6-(2-hydroxyphenyl)pyridazin-4-yl)-3,8-diazabicyclo[3.2.1]octan-8-yl)pyridin-2-yl)oxy)cyclobutoxy)piperidin-1-yl)ethoxy)isoxazol-5-yl)-3-methylbutanoyl)-N-((S)-3-cyano-1-(4-(4-methylthiazol-5-yl)phenyl)propyl)-4-hydroxypyrrolidine-2-carboxamide] | < 2.5 | > 75
